Experimental data: patent publication US7989482B2, “Indoline anti-cancer agents” (Joyant Pharmaceuticals, Inc., priority 2008, dated 2011)
Where two headings read alike, the source gives them in different places.

Key:
U937 cells = assay: Cell viability assay (CELL-TITER-GLO) in U937 cells; type: cell-based; conditions: U937 cells, 48 hour treatment, cell viability, read-out: IC50 (μM) U937
Protocol: (§1) Cell viability assays were run using standard protocols known to those of skill in art. Cells were plated in 96 well plates at the density of 3,000-10,000 cells per well. Twenty four hours later, cells were treated with increasing concentration of test compounds (1 nM to 1 μM). After another 48 hour, cell survival was measured using CELL-TITER-GLO® reagent (Promega) following the protocol provided by the manufacture. The IC50 value was determined as the concentration of test compound that kills 50% of the cell population.
(§2) Cell viability data generated according to the protocol described in Example 97 was generated for representative compounds in A2058 and U937 cells.

A2058 cells = assay: Cell viability assay (CELL-TITER-GLO) in A2058 cells; type: cell-based; conditions: A2058 cells, 48 hour treatment, cell viability, read-out: IC50 (μM) A2058
Protocol: as §1, §2

| Compound | IC50 (U937 cells; Homo sapiens, U-937, 48 h) [µM] | IC50 (A2058 cells; Homo sapiens, A2058, 48 h) [µM] | further results |
| --- | --- | --- | --- |
| COC(=O)c1nc([C@@H](NC(=O)[C@H](Cc2ccccc2)NC(=O)[C@@H](O)C(C)C)C(C)C)oc1-c1c[nH]c2ccccc12 [Example 94] | – | – | IC50 (U937 cells; Homo sapiens, U-937): > 1 µM; IC50 (A2058 cells; Homo sapiens): > 1 µM |
| CC(C)[C@H](O)C(=O)N[C@H]1Cc2ccc3c(c2)C2(C4=C(c5nc(C(=O)N6CCN(C)CC6)co5)N=C(O4)[C@H](C(C)C)NC1=O)c1ccccc1N[C@H]2O3 (stereo partly shown) [Example 63] | – | – | IC50 (U937 cells; Homo sapiens, U-937): 0.162 µM; IC50 (A2058 cells; Homo sapiens): 0.247 µM |
| COC(=O)c1nc2oc1C13c4cc(ccc4O[C@@H]1N(S(C)(=O)=O)c1ccccc13)C[C@H](NC(=O)[C@@H](O)C(C)C)C(=O)N[C@H]2C(C)C (stereo partly shown) [Example 37] | > 1 | > 1 | – |
| COc1ccc(-c2cnc(-c3nc4oc3[C@@]35c6ccccc6NC3Oc3ccc(cc35)C[C@H](NC(=O)[C@@H](O)C(C)C)C(=O)NC4C(C)C)o2)cc1 (stereo partly shown) [Example 95] | > 1 | > 1 | – |
| CCCCNC(=O)c1coc(-c2nc3oc2C24c5ccccc5N[C@H]2Oc2ccc(cc24)C[C@H](NC(=O)[C@@H](O)C(C)C)C(=O)N[C@H]3C(C)C)n1 (stereo partly shown) [Example 62] | 0.192 | 0.243 | – |
| CC(C)[C@H](O)C(=O)N[C@H]1Cc2ccc3c(c2)C2(C4=C(c5ncc[nH]5)N=C(O4)[C@H](C(C)C)NC1=O)c1ccccc1N[C@H]2O3 (stereo partly shown) [Example 85] | 0.234 | 0.337 | – |
| CCOC(=O)c1coc(-c2nc3oc2C24c5ccccc5N[C@H]2Oc2ccc(cc24)C[C@H](NC(=O)[C@@H](O)C(C)C)C(=O)N[C@H]3C(C)C)n1 (stereo partly shown) [Example 80] | 0.0013 | 0.021 | – |
| CCC(O)(CC)C(=O)N[C@H]1Cc2ccc3c(c2)C2(C4=C(c5nc(C(=O)OC)co5)N=C(O4)[C@H](C(C)C)NC1=O)c1ccccc1N[C@H]2O3 (stereo partly shown) [Example 47] | 0.019 | 0.077 | – |
| COC(=O)c1nc2oc1C13c4cc(ccc4O[C@@H]1Nc1c(-c4ccncc4)cccc13)C[C@H](NC(=O)[C@@H](O)C(C)C)C(=O)N[C@H]2C(C)C (stereo partly shown) [Example 41] | > 1 | > 1 | – |
| CCC(O)(CC)C(=O)N[C@H]1Cc2ccc3c(c2)C2(C4=C(c5nc(CO)co5)N=C(O4)[C@H](C(C)C)NC1=O)c1ccccc1N[C@H]2O3 (stereo partly shown) [Example 74] | – | – | IC50 (U937 cells; Homo sapiens, U-937): 0.11 µM; IC50 (A2058 cells; Homo sapiens): 0.292 µM |
| CCCCCCc1oc(-c2nc3oc2C24c5ccccc5N[C@H]2Oc2ccc(cc24)C[C@H](NC(=O)[C@@H](O)C(C)C)C(=O)N[C@H]3C(C)C)nc1C(=O)OC (stereo partly shown) [Example 77] | 0.018 | 0.08 | – |
| CCN(CC)C(=O)c1nc2oc1C13c4ccccc4N[C@H]1Oc1ccc(cc13)C[C@H](NC(=O)[C@@H](O)C(C)C)C(=O)N[C@H]2C(C)C (stereo partly shown) [Example 25] | > 1 | > 1 | – |
| CC(C)[C@H](O)C(=O)N[C@H]1Cc2ccc3c(c2)[C@]2(C4=C(C(N)=O)N=C(O4)[C@H](C(C)C)NC1=O)c1ccccc1NC2O3 (stereo partly shown) [Example 31] | > 1 | > 1 | – |
| COC(=O)c1coc(-c2nc3oc2C24c5ccccc5N[C@H]2Oc2ccc(cc24)C[C@H](NC(=O)[C@@H](O)C(C)(C)C)C(=O)N[C@H]3C(C)C)n1 (stereo partly shown) [Example 48] | 0.039 | 0.058 | – |
| CC(C)[C@H](O)C(=O)N[C@H]1Cc2ccc3c(c2)C2(C4=C(C(=O)NC(c5ccccc5)c5ccccc5)N=C(O4)[C@H](C(C)C)NC1=O)c1ccccc1N[C@H]2O3 (stereo partly shown) [Example 19] | – | – | IC50 (U937 cells; Homo sapiens, U-937): > 1 µM; IC50 (A2058 cells; Homo sapiens): > 1 µM |
| CNC(=O)c1coc(-c2nc3oc2C24c5ccccc5N[C@H]2Oc2ccc(cc24)C[C@H](NC(=O)[C@@H](O)C(C)C)C(=O)N[C@H]3C(C)C)n1 (stereo partly shown) [Example 58] | > 1 | > 1 | – |

| Compound | IC50 (U937 cells; Homo sapiens, U-937, 48 h) [µM] | IC50 (A2058 cells; Homo sapiens, A2058, 48 h) [µM] | further results |
| --- | --- | --- | --- |
| CCC(O)c1coc(-c2nc3oc2C24c5ccccc5N[C@H]2Oc2ccc(cc24)C[C@H](NC(=O)[C@@H](O)C(C)C)C(=O)N[C@H]3C(C)C)n1 (stereo partly shown) [Example 75] | 0.229 | 0.226 | – |
| COC(=O)[C@H](CO)NC(=O)c1nc2oc1C13c4ccccc4N[C@H]1Oc1ccc(cc13)C[C@H](NC(=O)[C@@H](O)C(C)C)C(=O)N[C@H]2C(C)C (stereo partly shown) [Example 30] | > 1 | > 1 | – |
| CC(C)[C@H](O)C(=O)N[C@H]1Cc2ccc3c(c2)C2(C4=C(c5nc(C(=O)NC6CCCc7ccccc76)co5)N=C(O4)[C@H](C(C)C)NC1=O)c1ccccc1N[C@H]2O3 (stereo partly shown) [Example 64] | 0.184 | 0.184 | – |
| COC(=O)[C@@H]1COC(c2nc3oc2C24c5ccccc5N[C@H]2Oc2ccc(cc24)C[C@H](NC(=O)[C@@H](O)C(C)C)C(=O)N[C@H]3C(C)C)=N1 (stereo partly shown) [Example 44] | > 1 | > 1 | – |
| CC(C)[C@H](O)C(=O)N[C@H]1Cc2ccc3c(c2)C2(C4=C(C(=O)N[C@@H]5CCCc6ccccc65)N=C(O4)[C@H](C(C)C)NC1=O)c1ccccc1N[C@H]2O3 (stereo partly shown) [Example 17] | > 1 | > 1 | – |
| CC(C)[C@H](O)C(=O)N[C@H]1Cc2ccc3c(c2)C2(C4=C(c5cnco5)N=C(O4)[C@H](C(C)C)NC1=O)c1ccccc1N[C@H]2O3 (stereo partly shown) [Example 83] | 0.252 | 0.433 | – |
| COC(=O)c1nc2oc1[C@@]13c4ccccc4NC1Oc1ccc(cc13)C[C@H](NC(=O)[C@@H](O)c1ccccc1)C(=O)N[C@H]2C(C)C (stereo partly shown) [Example 7] | > 1 | > 1 | – |
| CC(C)[C@H](O)C(=O)N[C@H]1Cc2ccc3c(c2)C2(C4=C(c5nc(C(=O)OC(C)(C)C)co5)N=C(O4)[C@H](C(C)C)NC1=O)c1ccccc1N[C@H]2O3 (stereo partly shown) [Example 82] | 0.066 | 0.126 | – |
| CC(C)[C@H](O)C(=O)N[C@H]1Cc2ccc3c(c2)C2(C4=C(C(=O)NC5CCc6ccccc65)N=C(O4)[C@H](C(C)C)NC1=O)c1ccccc1N[C@H]2O3 (stereo partly shown) [Example 28] | > 1 | > 1 | – |
| COC(=O)c1coc(-c2nc3oc2C24c5ccccc5N[C@H]2Oc2ccc(cc24)C[C@H](NC(=O)[C@@H](O)C(C)(C)C)C(=O)N[C@H]3C(C)C)n1 (stereo partly shown) [Example 49] | – | – | IC50 (U937 cells): 0.04 µM; IC50 (A2058 cells): 0.049 µM |
| COC(=O)c1nc2oc1C13c4cc(ccc4O[C@@H]1Nc1c(-c4ccccc4)cccc13)C[C@H](NC(=O)[C@@H](O)C(C)C)C(=O)N[C@H]2C(C)C (stereo partly shown) [Example 38] | > 1 | > 1 | – |
| CCC(C)(C)C(=O)N[C@H]1Cc2ccc3c(c2)C2(C4=C(c5nc(C(=O)OC)co5)N=C(O4)[C@H](C(C)C)NC1=O)c1ccccc1N[C@H]2O3 (stereo partly shown) [Example 53] | 0.068 | 0.357 | – |
| CC(C)[C@H](O)C(=O)N[C@H]1Cc2ccc3c(c2)C2(C4=C(C(=O)N5CCCC5)N=C(O4)[C@H](C(C)C)NC1=O)c1ccccc1N[C@H]2O3 (stereo partly shown) [Example 14] | > 1 | > 1 | – |
| COC(=O)c1nc(-c2nc3oc2C24c5ccccc5N[C@H]2Oc2ccc(cc24)C[C@H](NC(=O)[C@@H](O)CC(C)C)C(=O)N[C@H]3C(C)C)oc1C (stereo partly shown) [Example 70] | 0.065 | 0.08 | – |
| COC(=O)c1nc2oc1[C@@]13c4ccccc4NC1Oc1ccc(cc13)CC(NC(=O)OCc1ccccc1)C(=O)N[C@H]2C(C)C (stereo partly shown) [Example 4] | – | – | IC50 (U937 cells; Homo sapiens, U-937): > 1 µM; IC50 (A2058 cells; Homo sapiens): > 1 µM |
| COC(=O)c1nc2oc1C13c4cc(ccc4O[C@@H]1Nc1c(-c4c(C)c(C)cc(C)c4C)cccc13)C[C@H](NC(=O)[C@@H](O)C(C)C)C(=O)N[C@H]2C(C)C (stereo partly shown) [Example 42] | > 1 | > 1 | – |
